Counter-ions that a name gives are not always drawn.
What was measured:
[1] = test system: Newcastle disease virus; test: microbe, parasite or virus in culture; type: cell-based; conditions: for MIC: avian paramyxovirus 1, in Gallus gallus, 48 h, read-out: Minimum growth-inhibition concentration
[2] = in vitro; conditions: chicken, chick embryo fibroblast

| Compound | MIC [1] | MCC at 48 h [2] | inhibitory effect on the growth of viruses (in words) ([1]; compared with 1-aminotricyclo[4.3.1.1^2,5 ]undecane) | inhibitory effect on the growth of Newcastle disease virus (in words) ([1]; in chick embryo fibroblasts) | fraction of the concentration of 1-aminotricyclo[4.3.1.1^2,5 ]undecane at which virus multiplication is inhibited ([1]; relative to 1-aminotricyclo[4.3.1.1^2,5 ]undecane, Newcastle disease virus in chick embryo fibroblasts) | fraction of the concentration of adamantylamine hydrochloride at which virus multiplication is inhibited ([1]; relative to adamantylamine hydrochloride, Newcastle disease virus in chick embryo fibroblasts) |
| --- | --- | --- | --- | --- | --- | --- |
| NC12CC3CC(CC(C3)C1)C2 [Adamantylamine hydrochloride, reference compound] | 250 µg/mL | 250 µg/mL | – | – | – | – |
| NCC12CCCC(C1)C1CCC2C1 (stereo not shown) [compound of the formula (I), 1-aminomethyltricyclo[4.3.1.1^2,5]undecane] | – | – | inhibitory effect on the growth of viruses at a lower concentration than the earlier compound | excellent inhibitory effect | 1/2 | about 1/6 |
| Cl.NC12CCCC(C1)C1CCC2C1 (stereo not shown) [1-Aminotricyclo-[4.3.1.1^2,5]undecane hydrochloride, reference compound] | 87 µg/mL | 87 µg/mL | – | – | – | – |
| Cl.NCC12CCCC(C1)C1CCC2C1 (stereo not shown) [1-aminomethyltricyclo[4.3.1.1^2,5]undecane hydrochloride] | 40 µg/mL | 40 µg/mL | – | – | – | – |
